Literature values, collected in patent publication US12582625B2, “Methods for treating neuroblastoma” (priority 2015, dated 2026).

How the values were obtained:
[1] = in vivo; cited from earlier work
[2] = system: tumors harboring Ki-ras mutations; conditions: AOM-treated rats, reduced from 90% (Singh et al., 1994); cited from earlier work
[3] = cited from earlier work
[4] = human, in vivo; cited from earlier work

Structure (SMILES): Cc1ccc(-c2cc(C(F)(F)F)nn2-c2ccc(S(N)(=O)=O)cc2)cc1 [celecoxib, 4-[5-(4-Methylphenyl)-3-(trifluoromethyl)pyrazol-1-yl]benzenesulfonamide]
- increase in rates of heart and blood vessel disease [1]: 30%
- risk of gastrointestinal side effects [1]: greater than 80%

Structure (SMILES): CN1C(C(=O)Nc2ccccn2)=C(O)c2ccccc2S1(=O)=O [piroxicam, 4 hydroxy-2-methyl-N-2-pyridyl-2H-1,2-benzothiazine-3-carboxamide 1,1-dioxide]
- tumors harboring Ki-ras mutations [2]: 25%

Structure (SMILES): CC1=C(CC(=O)O)c2cc(F)ccc2/C1=C\c1ccc([S+](C)[O-])cc1 (stereo not shown) [sulindac, (Z)-5-fluoro-2-methyl-1-((4-(methylsulfinyl)phenyl)methylene)-1H-chemical indene-3-acetic acid]
- drug absorbed ([3]; after oral administration): about 90%
- time to peak plasma levels ([3]; fasting patients): about 2 hours
- patients with mild gastrointestinal effects [4]: ~20%
- patients with skin rash and pruritus [4]: 5%
